Starred links: 1 amine or outer side, 2 acyl side, 3 side chain; linkers in the order of their positions; H or OH if unused. Positions of bridges follow the written chain, without caps; N, C: chain ends. Non-standard residues stand in square brackets, D forms with d. Residues, ends and D or L forms follow the SMILES beside them. *: point of attachment. hPhe(3-Cl-4-CF3) = N[C@@H](CCc1ccc(C(F)(F)F)c(Cl)c1)C(=O)O; hPhe(3-F,4-CF3) = N[C@@H](CCc1ccc(C(F)(F)F)c(F)c1)C(=O)O; X15 = COc1cc(CC[C@H](N[*:1])C(=O)[*:2])cc(Cl)c1Cl; 3Oxa8azabicyclo(3.2.1)octane = C1CC2COCC1N2*; NMeAbu(4,4,4-F3) = CN[C@@H](CC(F)(F)F)C(=O)O; NMePhe(4-Me) = CN[C@@H](Cc1ccc(C)cc1)C(=O)O; NMedβ3hAla = C[C@H](CC(=O)[*:2])N(C)[*:1]; NMeAla(cPent) = CN[C@@H](CC1CCCC1)C(=O)O; NMeGly(cPent) = CN[C@H](C(=O)O)C1CCCC1; NMeGly(cBu) = CN[C@H](C(=O)O)C1CCC1; NMeY = CN[C@@H](Cc1ccc(O)cc1)C(=O)O; NMeCha = CN[C@@H](CC1CCCCC1)C(=O)O; NMeCba = CN[C@@H](CC1CCC1)C(=O)O; NMeChg = CN[C@H](C(=O)O)C1CCCCC1; NMeT = CN[C@H](C(=O)O)[C@@H](C)O; NMeD = CN[C@@H](CC(=O)O)C(=O)O; NMeL = CN[C@@H](CC(C)C)C(=O)O; NPrAla = CCCN[C@@H](C)C(=O)O; NMeNva = CCC[C@H](NC)C(=O)O; NMeV = CN[C@H](C(=O)O)C(C)C; d(β3hA) = C[C@@H](N)CC(=O)O; Morpholide = C1CN(*)CCO1; NMeA = CN[C@@H](C)C(=O)O; Piperidide = C1CCN(*)CC1; Ac5c = NC1(C(=O)O)CCCC1; Aze = O=C(O)[C@@H]1CCN1; Sar = CNCC(=O)O
What was measured:
[1] = target: T1, Kras and SOS1 (biotin-tagged human Kras loaded with GDP, His-tagged human SOS1) (Homo sapiens, UniProt P01116, G12D); test: Protein-protein interaction inhibition between Kras and SOS1 (KrasGl2D-SOS PPI) using AlphaScreen; type: binding; settings: AlphaScreen; biotin-tagged human Kras loaded with GDP, His-tagged human SOS1; read-out: KRAS G12D-SOS PPI IC50
T1 construct: made in house; host or cells: E. coli (stated for Kras only)
T1 sequence (P01116 1-188 isoform P01116-2 G12D): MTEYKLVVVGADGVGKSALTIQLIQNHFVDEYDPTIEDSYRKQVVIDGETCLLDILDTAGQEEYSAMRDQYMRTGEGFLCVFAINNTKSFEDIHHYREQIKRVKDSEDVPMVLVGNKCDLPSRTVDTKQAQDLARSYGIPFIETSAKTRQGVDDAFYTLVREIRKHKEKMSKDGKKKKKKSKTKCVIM
Outline: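 Kras was produced in E. coli, purified, then loaded with GDP. It was paired via streptavidin acceptor beads with His-SOS1 held on nickel donor beads, and proximity signal at 520-620 nm was read after 680 nm illumination.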

[2] = test system: Human pancreatic cancer cell line AsPC-1; test: Measurement of AsPC-1 cell growth inhibition (AsPC-1 CGI); type: cell-based; settings: 96 h
Outline: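 AsPC-1 cells in 15% FBS RPMI-1640 were exposed to test compound for 96 hours at 37° C, with CellTiter-Glo as endpoint.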

| Structure (SMILES) | IC50 [1] [nM] | IC50 [2] [nM] |
| --- | --- | --- |
| CC[C@H](C)[C@@H]1NC(=O)[C@H](CC(F)(F)F)N(C)C(=O)C[C@@H](C(=O)N2CCOCC2)N(C)C(=O)[C@H](C2CCCCC2)N(C)C(=O)C2(CCCC2)NC(=O)[C@@H]2CCCN2C(=O)[C@H](CCc2ccc(C(F)(F)F)c(Cl)c2)NC(=O)CN(C)C(=O)[C@H](Cc2ccc(C)cc2)N(C)C(=O)CN(C)C(=O)CN(C)C1=O [Compound 1001] ([NMeAbu(4,4,4-F3)]I[Sar][Sar][NMePhe(4-Me)][Sar][hPhe(3-Cl-4-CF3)]P[Ac5c][NMeChg][NMeD]-Morpholide; lactam N-11) | 0.44 | 20 to 50 |
| CC[C@H](C)[C@@H]1NC(=O)[C@H](CC(C)C)N(C)C(=O)C[C@@H](C(=O)N2CCCCC2)N(C)C(=O)[C@H](C2CCCCC2)N(C)C(=O)C2(CCCC2)NC(=O)[C@@H]2CCCN2C(=O)[C@H](CCc2ccc(C(F)(F)F)c(Cl)c2)NC(=O)CN(C)C(=O)[C@H](C(C)C)N(C)C(=O)CN(C)C(=O)CN(C)C1=O [Compound 1829] ([NMeL]I[Sar][Sar][NMeV][Sar][hPhe(3-Cl-4-CF3)]P[Ac5c][NMeChg][NMeD]-Piperidide; lactam N-11) | 1.5 | 100 to 500 |
| CC[C@H](C)[C@@H]1NC(=O)[C@H]([C@@H](C)OC)N(C)C(=O)C[C@@H](C(=O)N2CCCCC2)N(C)C(=O)[C@H](C2CCCCC2)N(C)C(=O)C2(CCCC2)NC(=O)[C@@H]2CCCN2C(=O)[C@H](CCc2ccc(C(F)(F)F)c(Cl)c2)NC(=O)CN(C)C(=O)[C@H](CC2CCCCC2)N(C)C(=O)CN(C)C(=O)CN(C)C1=O [Compound 820] ([NMeT](Me)I[Sar][Sar][NMeCha][Sar][hPhe(3-Cl-4-CF3)]P[Ac5c][NMeChg][NMeD]-Piperidide; lactam N-11) | 0.73 | 50 to 100 |
| CC[C@H](C)[C@@H]1NC(=O)[C@H](CC(C)C)N(C)C(=O)C[C@@H](C)NC(=O)[C@H](C2CCCC2)N(C)C(=O)C2(CCCC2)NC(=O)[C@H](C)N(C)C(=O)[C@H](CCc2ccc(C(F)(F)F)c(Cl)c2)NC(=O)CN(C)C(=O)[C@H](Cc2ccc(C)cc2)N(C)C(=O)[C@@H]2CCN2C(=O)[C@H](C)N(C)C1=O [Compound 1153] (cyclo([Ac5c][NMeGly(cPent)][d(β3hA)][NMeL]I[NMeA][Aze][NMePhe(4-Me)][Sar][hPhe(3-Cl-4-CF3)][NMeA])) | 2.5 | 100 to 500 |
| CC[C@H](C)[C@@H]1NC(=O)[C@H](CC(C)C)N(C)C(=O)C[C@@H](C(=O)N(C)C)N(C)C(=O)[C@H](C(C)C)N(C)C(=O)C2(CCCC2)NC(=O)[C@@H]2CCCN2C(=O)[C@H](CCc2ccc(C(F)(F)F)c(Cl)c2)NC(=O)CN(C)C(=O)[C@H](CC2CCCCC2)N(C)C(=O)CN(C)C(=O)CN(C)C1=O [Compound 1812] ([NMeL]I[Sar][Sar][NMeCha][Sar][hPhe(3-Cl-4-CF3)]P[Ac5c][NMeV][NMeD]-NMe2; lactam N-11) | 0.56 | 50 to 100 |
| CCC[C@H]1C(=O)N[C@@H]([C@@H](C)CC)C(=O)N(C)CC(=O)N(C)CC(=O)N(C)[C@@H](CC2CCCC2)C(=O)N(C)CC(=O)N[C@@H](CCc2ccc(C(F)(F)F)c(Cl)c2)C(=O)N2CCC[C@H]2C(=O)NC2(CCCC2)C(=O)N(C)[C@@H](C2CCCCC2)C(=O)N(C)[C@H](C(=O)N2C3CCC2COC3)CC(=O)N1C [Compound 1916] ([NMeNva]I[Sar][Sar][NMeAla(cPent)][Sar][hPhe(3-Cl-4-CF3)]P[Ac5c][NMeChg][NMeD]-{3Oxa8azabicyclo(3.2.1)octane}; lactam N-11) | 0.99 | 100 to 500 |
| CC[C@H](C)[C@@H]1NC(=O)[C@H](C2CCC2)N(C)C(=O)C[C@@H](C(=O)N2C3CCC2COC3)N(C)C(=O)[C@H](C2CCCCC2)N(C)C(=O)C2(CCCC2)NC(=O)[C@@H]2CCCN2C(=O)[C@H](CCc2ccc(C(F)(F)F)c(Cl)c2)NC(=O)CN(C)C(=O)[C@H](CC2CCCCC2)N(C)C(=O)CN(C)C(=O)CN(C)C1=O [Compound 701] ([NMeGly(cBu)]I[Sar][Sar][NMeCha][Sar][hPhe(3-Cl-4-CF3)]P[Ac5c][NMeChg][NMeD]-{3Oxa8azabicyclo(3.2.1)octane}; lactam N-11) | 0.69 | 50 to 100 |
| CC[C@H](C)[C@@H]1NC(=O)[C@H](CC(F)(F)F)N(C)C(=O)C[C@@H](C(=O)N2CCCCC2)N(C)C(=O)[C@H](C(C)C)N(C)C(=O)C2(CCCC2)NC(=O)[C@@H]2CCCN2C(=O)[C@H](CCc2ccc(C(F)(F)F)c(Cl)c2)NC(=O)CN(C)C(=O)[C@H](CC2CCCCC2)N(C)C(=O)[C@@H]2CCN2C(=O)[C@H](C)N(C)C1=O [Compound 1704] ([NMeAbu(4,4,4-F3)]I[NMeA][Aze][NMeCha][Sar][hPhe(3-Cl-4-CF3)]P[Ac5c][NMeV][NMeD]-Piperidide; lactam N-11) | 6 | 100 to 500 |
| CC[C@H](C)[C@@H]1NC(=O)[C@H](CC(C)C)N(C)C(=O)C[C@@H](C(=O)N2CCCCC2)N(C)C(=O)[C@H](CC2CCC2)N(C)C(=O)C2(CCCC2)NC(=O)[C@@H]2CCCN2C(=O)[C@H](CCc2ccc(C(F)(F)F)c(Cl)c2)NC(=O)CN(C)C(=O)[C@H](CC2CCCCC2)N(C)C(=O)[C@@H]2CCN2C(=O)[C@H](C)N(C)C1=O [Compound 1860] ([NMeL]I[NMeA][Aze][NMeCha][Sar][hPhe(3-Cl-4-CF3)]P[Ac5c][NMeCba][NMeD]-Piperidide; lactam N-11) | 11 | 100 to 500 |
| CC[C@H](C)[C@@H]1NC(=O)[C@H](C)N(C)C(=O)C[C@@H](C(=O)N2CCCCC2)N(C)C(=O)[C@H](C(C)C)N(C)C(=O)C2(CCCC2)NC(=O)[C@@H]2CCCN2C(=O)[C@H](CCc2cc(Cl)c(Cl)c(OC)c2)NC(=O)CN(C)C(=O)[C@H](CC2CCCCC2)N(C)C(=O)CN(C)C(=O)CN(C)C1=O [Compound 2061] ([NMeA]I[Sar][Sar][NMeCha][Sar][X15]P[Ac5c][NMeV][NMeD]-Piperidide; lactam N-11) | 21 | > 500 |
| CCCN1C(=O)C[C@@H](C(=O)N2CCCCC2)N(C)C(=O)[C@H](C(C)C)N(C)C(=O)C2(CCCC2)NC(=O)[C@@H]2CCCN2C(=O)[C@H](CCc2ccc(C(F)(F)F)c(Cl)c2)NC(=O)CN(C)C(=O)[C@H](CC2CCCCC2)N(C)C(=O)CN(C)C(=O)CN(C)C(=O)[C@H]([C@@H](C)CC)NC(=O)[C@@H]1C [Compound 131] ([NPrAla]I[Sar][Sar][NMeCha][Sar][hPhe(3-Cl-4-CF3)]P[Ac5c][NMeV][NMeD]-Piperidide; lactam N-11) | 3.3 | 100 to 500 |
| CC[C@H](C)[C@@H]1NC(=O)[C@H](CC(C)C)N(C)C(=O)C[C@@H](C(=O)N2CCCCC2)N(C)C(=O)[C@H](C(C)C)N(C)C(=O)C2(CCCC2)NC(=O)[C@@H]2CCCN2C(=O)[C@H](CCc2ccc(C(F)(F)F)c(Cl)c2)NC(=O)CN(C)C(=O)[C@H](Cc2ccc(OC)cc2)N(C)C(=O)CN(C)C(=O)CN(C)C1=O [Compound 1588] ([NMeL]I[Sar][Sar][NMeY](Me)[Sar][hPhe(3-Cl-4-CF3)]P[Ac5c][NMeV][NMeD]-Piperidide; lactam N-11) | 4.1 | 100 to 500 |
| CC[C@H](C)[C@@H]1NC(=O)[C@H](CC(C)C)N(C)C(=O)C[C@@H](C)N(C)C(=O)[C@H](C(C)C)N(C)C(=O)C2(CCCC2)NC(=O)[C@@H]2CCCN2C(=O)[C@H](CCc2ccc(C(F)(F)F)c(F)c2)NC(=O)CN(C)C(=O)[C@H](CC2CCCCC2)N(C)C(=O)CN(C)C(=O)CN(C)C1=O [Compound 337] (cyclo([Ac5c][NMeV][NMedβ3hAla][NMeL]I[Sar][Sar][NMeCha][Sar][hPhe(3-F,4-CF3)]P)) | 16 | 100 to 500 |

From US12371454B2, “Cyclic peptide compound having Kras inhibitory action” (priority 2019, dated 2025)
